According to patent US4272437A, “Antibacterial agents, and 4-thio azetidinone intermediates” (priority 1979, dated 1981):
Counter-ions that a name gives are not always drawn.

How the values were obtained:
[1] = test system: Str. pneumoniae A-9585; assay: MIC, tube dilution, Streptococcus pneumoniae A9585; format: cell-based; details: overnight 37° C., Nutrient Broth; for MIC: Streptococcus pneumoniae, A9585, Str. pneumoniae A9585, read-out: Minimum Inhibitory Concentration (M.I.C.)
Excerpt: (§1) Representative compounds of the present invention were subjected to in vitro antibiotic screening against a variety of microorganisms.

[2] = test system: Ps. aeruginosa A-9843A; assay: MIC, tube dilution, Pseudomonas aeruginosa A9843A; format: cell-based; details: overnight 37° C.; for MIC: Pseudomonas aeruginosa, A9843A, read-out: Minimum Inhibitory Concentration (M.I.C.), Pseudomonas aeruginosa A9843A
Excerpt: as §1

[3] = test system: K. pneumoniae A-15130; assay: MIC, tube dilution, Klebsiella pneumoniae A15130; format: cell-based; details: overnight 37° C.; for MIC: Klebsiella pneumoniae, A15130, K. pneumoniae A15130, read-out: Minimum Inhibitory Concentration (M.I.C.)
Excerpt: as §1

[4] = test system: E. coli A-20341-1; assay: MIC, tube dilution, Escherichia coli A20341-1; format: cell-based; details: overnight 37° C.; for MIC: Escherichia coli, A203411, E. coli A20341-1, read-out: Minimum Inhibitory Concentration (M.I.C.)
Excerpt: as §1

[5] = test system: Pr. mirabilis A-9900; assay: MIC, tube dilution, Proteus mirabilis A9900; format: cell-based; details: overnight 37° C.; for MIC: Proteus mirabilis, A9900, Proteus mirabilis A9900, read-out: Minimum Inhibitory Concentration (M.I.C.)
Excerpt: as §1

[6] = test system: Ps. aeruginosa A-21213; assay: MIC, tube dilution, Pseudomonas aeruginosa A21213; format: cell-based; details: overnight 37° C.; for MIC: Pseudomonas aeruginosa, A21213, Pseudomonas aeruginosa A21213, read-out: Minimum Inhibitory Concentration (M.I.C.)
Excerpt: as §1

[7] = test system: Staph. aureus A-9537 and 50% serum; assay: MIC, tube dilution, Staph. aureus A9537 + 50% serum; format: cell-based, Staphylococcus aureus; details: overnight 37° C.; for MIC: Staphylococcus aureus, read-out: Minimum Inhibitory Concentration (M.I.C.)
Excerpt: as §1

[8] = test system: Ent. cloacae A-9656; assay: MIC, tube dilution, Enterobacter cloacae A9656; format: cell-based; details: overnight 37° C.; for MIC: Enterobacter cloacae, A9656, Enterobacter cloacae A9656, read-out: Minimum Inhibitory Concentration (M.I.C.)
Excerpt: as §1

[9] = test system: Ser. marcescens A-20019; assay: MIC, tube dilution, Serratia marcescens A20019; format: cell-based; details: overnight 37° C.; for MIC: Serratia marcescens, A20019, Serratia marcescens A20019, read-out: Minimum Inhibitory Concentration (M.I.C.)
Excerpt: as §1

[10] = test system: Proteus rettgeri A21203; assay: MIC, tube dilution, Proteus rettgeri A21203; format: cell-based; details: overnight 37° C.; for MIC: Providencia rettgeri, A21203, Proteus rettgeri A21203, read-out: Minimum Inhibitory Concentration (M.I.C.)
Excerpt: as §1

[11] = test system: Pr. morganii A-15153; assay: MIC, tube dilution, Proteus morganii A15153; format: cell-based; details: overnight 37° C.; for MIC: Morganella morganii, A15153, Proteus morganii A15153, read-out: Minimum Inhibitory Concentration (M.I.C.)
Excerpt: as §1

[12] = test system: Ent. cloacae A-9659; assay: MIC, tube dilution, Enterobacter cloacae A9659; format: cell-based; details: overnight 37° C.; for MIC: Enterobacter cloacae, A9659, Enterobacter cloacae A9659, read-out: Minimum Inhibitory Concentration (M.I.C.)
Excerpt: as §1

[13] = test system: Staph. aureus (Pen-Res) A-9606; assay: MIC, tube dilution, Staphylococcus aureus A9606 (Pen-Res); format: cell-based; details: Staph. aureus A9606 (Pen-Res), overnight 37° C.; for MIC: Staphylococcus aureus, read-out: Minimum Inhibitory Concentration (M.I.C.)
Excerpt: as §1

[14] = test system: E. coli A-15119; assay: MIC, tube dilution, Escherichia coli A15119; format: cell-based; details: overnight 37° C.; for MIC: Escherichia coli, A15119, E. coli A15119, read-out: Minimum Inhibitory Concentration (M.I.C.)
Excerpt: as §1

[15] = test system: Klebsiella species A20468; assay: MIC, tube dilution, Klebsiella species A20468; format: cell-based; details: Klebsiella species (K. pneumoniae) A20468, overnight 37° C.; for MIC: read-out: Minimum Inhibitory Concentration (M.I.C.)
Excerpt: as §1

[16] = test system: Str. faecalis A-20688; assay: MIC, tube dilution, Streptococcus faecalis A20688; format: cell-based; details: overnight 37° C.; for MIC: Enterococcus faecalis, A20688, Str. faecalis A20688, read-out: Minimum Inhibitory Concentration (M.I.C.)
Excerpt: as §1

[17] = test system: Staph. aureus A-9537; assay: MIC, tube dilution, Staphylococcus aureus A9537; format: cell-based; details: overnight 37° C., Nutrient Broth; for MIC: Staphylococcus aureus, A9537, Staph. aureus A9537, read-out: Minimum Inhibitory Concentration (M.I.C.)
Excerpt: as §1

[18] = test system: Staph. aureus (Meth-Res) A-15097; assay: MIC, tube dilution, Staphylococcus aureus A15097 (Meth-Res); format: cell-based; details: Staph. aureus A15097 (Meth-Res), overnight 37° C.; for MIC: Staphylococcus aureus, read-out: Minimum Inhibitory Concentration (M.I.C.)
Excerpt: as §1

[19] = test system: Proteus vulgaris A21559; assay: MIC, tube dilution, Proteus vulgaris A21559; format: cell-based; details: overnight 37° C.; for MIC: Proteus vulgaris, A21559, Proteus vulgaris A21559, read-out: Minimum Inhibitory Concentration (M.I.C.)
Excerpt: as §1

[20] = test system: Str. pyogenes A-9604; assay: MIC, tube dilution, Streptococcus pyogenes A9604; format: cell-based; details: overnight 37° C., Nutrient Broth; for MIC: Streptococcus pyogenes, A9604, Str. pyogenes A9604, read-out: Minimum Inhibitory Concentration (M.I.C.)
Excerpt: as §1

CC1=C(C(=O)O)N2C(=O)[C@H]([C@H]3COC(C)(C)O3)[C@H]2S1 (relative stereo) [Example 104, (4'S,5R,6S and 4'R,5S,6R) 6-(2',2'-Dimethyl-1',3'-dioxolan-4'-yl)-2-methylpenem-3-carboxylic Acid (Isomer B)]
> 63 µg/mL: MIC [3] | MIC [4] | MIC [5] | MIC [8] | MIC [9] | MIC [11] | MIC [12] | MIC [14] | MIC [15] | MIC [19]
16 µg/mL: MIC [1]
32 µg/mL: MIC [20]
> 32 µg/mL: MIC [7]
63 µg/mL: MIC [2] | MIC [6] | MIC [10] | MIC [13] | MIC [16] | MIC [17] | MIC [18]

C[C@@H](O)[C@H]1C(=O)N2C(C(=O)O)=C(COCCN)S[C@H]12 (relative stereo) [66,96]
4 µg/mL: MIC [11] | MIC [16]
16 µg/mL: MIC [2]
2 µg/mL: MIC [3] | MIC [8] | MIC [9] | MIC [10] | MIC [15]
8 µg/mL: MIC [6] | MIC [12]
0.06 µg/mL: MIC [17]
1 µg/mL: MIC [5] | MIC [18] | MIC [19]
0.25 µg/mL: MIC [13]
0.03 µg/mL: MIC [1] | MIC [20]
0.5 µg/mL: MIC [4] | MIC [7] | MIC [14]

N=C(NCC1=C(C(=O)O)N2C(=O)CC2S1)c1ccccc1 (stereo not shown) [Example 108, 2-Phenylimidoylaminomethylpenem-3-carboxylic Acid]
63 µg/mL: MIC [2] | MIC [5] | MIC [10] | MIC [11] | MIC [14]
> 125 µg/mL: MIC [4] | MIC [15] | MIC [18]
125 µg/mL: MIC [3] | MIC [6] | MIC [8] | MIC [9] | MIC [12] | MIC [16] | MIC [19]
16 µg/mL: MIC [7] | MIC [13]
0.25 µg/mL: MIC [1] | MIC [17] | MIC [20]

CCC(N)CC1=C(C(=O)O)N2C(=O)CC2S1 (stereo not shown) [Example 100, 2-(2'-Aminobutyl)-penem-3-carboxylic Acid]
4 µg/mL: MIC [14]
32 µg/mL: MIC [4]
> 32 µg/mL: MIC [2] | MIC [6] | MIC [13] | MIC [15] | MIC [16] | MIC [18]
16 µg/mL: MIC [3] | MIC [11] | MIC [12] | MIC [19]
8 µg/mL: MIC [5] | MIC [7] | MIC [8] | MIC [9] | MIC [10]
0.25 µg/mL: MIC [1] | MIC [17] | MIC [20]

COCOC[C@H](O)[C@H]1C(=O)N2C(C(=O)O)=C(C)S[C@H]12 (relative stereo) [Example 105, (1'R,5R,6S and 1'S,5S,6R) 6-(1'-Hydroxy-2'-methoxymethoxy-2'-ethyl)-2-methylpenem-3-carboxylic acid (Isomer C)]
> 8 µg/mL: MIC [17]
> 32 µg/mL: MIC [7]
63 µg/mL: MIC [2] | MIC [3] | MIC [4] | MIC [6] | MIC [8] | MIC [12] | MIC [13] | MIC [14]
> 63 µg/mL: MIC [5] | MIC [9] | MIC [11] | MIC [15] | MIC [16] | MIC [18] | MIC [19]
4 µg/mL: MIC [1] | MIC [20]
32 µg/mL: MIC [10]

NC1CCC(C2=C(C(=O)O)N3C(=O)C[C@H]3S2)C1 (single isomer, unassigned) [98 isomer C, 2-(3-Aminocyclopentyl)-penem-3-carboxylic acid]
.06 µg/mL: Minimum Inhibitory Concentration (M.I.C.) ([1]; Str. pneumoniae A9585) | Minimum Inhibitory Concentration (M.I.C.) ([20]; Str. pyogenes A9604)
.13 µg/mL: Minimum Inhibitory Concentration (M.I.C.) ([17]; Staph. aureus A9537)
8 µg/mL: Minimum Inhibitory Concentration (M.I.C.) ([3]; K. pneumoniae A15130) | Minimum Inhibitory Concentration (M.I.C.) ([5]; Proteus mirabilis A9900) | Minimum Inhibitory Concentration (M.I.C.) ([8]; Enterobacter cloacae A9656) | Minimum Inhibitory Concentration (M.I.C.) ([9]; Serratia marcescens A20019)
> 63 µg/mL: Minimum Inhibitory Concentration (M.I.C.) ([6]; Pseudomonas aeruginosa A21213) | Minimum Inhibitory Concentration (M.I.C.) [13] | Minimum Inhibitory Concentration (M.I.C.) [15] | Minimum Inhibitory Concentration (M.I.C.) [18]
4 µg/mL: Minimum Inhibitory Concentration (M.I.C.) [7] | Minimum Inhibitory Concentration (M.I.C.) ([10]; Proteus rettgeri A21203)
16 µg/mL: Minimum Inhibitory Concentration (M.I.C.) ([4]; E. coli A20341-1) | Minimum Inhibitory Concentration (M.I.C.) ([11]; Proteus morganii A15153) | Minimum Inhibitory Concentration (M.I.C.) ([12]; Enterobacter cloacae A9659) | Minimum Inhibitory Concentration (M.I.C.) ([19]; Proteus vulgaris A21559)
2 µg/mL: Minimum Inhibitory Concentration (M.I.C.) ([14]; E. coli A15119)
32 µg/mL: Minimum Inhibitory Concentration (M.I.C.) ([2]; Pseudomonas aeruginosa A9843A) | Minimum Inhibitory Concentration (M.I.C.) ([16]; Str. faecalis A20688)

CC1=C(C(=O)O)N2C(=O)[C@H](CNC=O)[C@H]2S1 (relative stereo) [Example 92, 6-Formamidomethyl-2-methylpenem-3-carboxylic acid, sodium and potassium salts]
0.5 µg/mL: MIC [1] | MIC [20]
> 63 µg/mL: MIC [2] | MIC [6] | MIC [16]
32 µg/mL: MIC [4] | MIC [5] | MIC [7] | MIC [10] | MIC [14] | MIC [18] | MIC [19]
63 µg/mL: MIC [3] | MIC [8] | MIC [9] | MIC [11] | MIC [12] | MIC [15]
16 µg/mL: MIC [13]
8 µg/mL: MIC [17]

CC(N)=NCC1=C(C(=O)O)N2C(=O)CC2S1 (stereo not shown) [16 (5)]
1 µg/mL: MIC [1]
16 µg/mL: MIC [2] | MIC [11] | MIC [14]
4 µg/mL: MIC [17]
32 µg/mL: MIC [6] | MIC [7] | MIC [9] | MIC [10] | MIC [13]
2 µg/mL: MIC [20]
> 63 µg/mL: MIC [4] | MIC [15] | MIC [16]
63 µg/mL: MIC [3] | MIC [8] | MIC [12] | MIC [18] | MIC [19]
8 µg/mL: MIC [5]
